Laboratory results published in patent publication US8299021B2, “Macrocyclic inhibitors of hepatitis C virus replication” (InterMune, Inc., priority 2005, dated 2012).

What follows are molecules tested against T1, NS3-NS4 protease (full-length NS3/NS4A-2) (Hepatitis C virus genotype 1a, UniProt P27958) (assay: NS3-NS4 protease assay / NS3 inhibition assay (RETS1 substrate, fluorescence kinetic read)). Settings: Table 22; read-out: NS3-NS4 IC50.
T1 construct: Recombinant E. coli or Baculovirus full-length NS3 was diluted to 3.33 μM with assay buffer; made in house; host or cells: E. coli or baculovirus (insect cells)
Format: biochemical
Experimental: NS3 complex formation with NS4A-2.
The appropriate amount of NS4A-2 to 8.3 mM in assay buffer was added to equal the volume of NS3 in step 2.1.1 (conversion factor—3.8 mg/272 μL assay buffer). The material was transferred to an eppendorf tube and place in water bath in 4° C. refrigerator.
After equilibration to 4° C., equal volumes of NS3 and NS4A-2 solutions were combined in an eppendorf tube, mix gently with a manual pipettor, and incubate mixture for 15 minutes in the 4° C. water bath.
After 15 minutes at 4° C., the NS3/NS4A-2 eppendorf tube was removed and place it in a room temperature water bath for 10 minutes. NS3/NS4A-2 was alliquoted at appropriate volumes and store at −80° C. (E. coli NS3 run at 2 nM in assay, aliquot at 25 μL. BV NS3 run at 3 nM in assay, aliquot at 30 μL).
Sample compounds were dissolved to 10 mM in DMSO then diluted to 2.5 mM (1:4) in DMSO.
The E. coli. […] Using the manual multichannel pipettor, careful not to introduce bubbles into the plate, add 50 μL assay buffer to wells A01-H01 of a black Costar 96-well polypropylene storage plate.
Using the manual multichannel pipettor, careful not to introduce bubbles into the plate, add 50 μL of diluted NS3/NS4A-2 from step 2.2.6 to wells A02-H12 of plate in step 2.2.7. Using the manual multichannel pipettor, careful not to introduce bubbles into the plate, transfer 25 μL of the wells in drug dilution plate in step 2.2.5 to corresponding wells in assay plate in step 2.2.8. Change tips on multichannel pipettor for each row of compounds transferred. Using the manual multichannel pipettor, careful not to introduce bubbles into the plate, mix the wells from the assay plate in step 2.2.9 by aspirating and dispensing 35 μL of the 75 μL in each well five times. Change tips on multichannel pipettor for each row of wells mixed. Cover plate with a polystyrene plate lid and pre-incubate the plate from step 2.2.10 containing NS3 protease and sample compounds 10 minutes at room temperature. While plate from step 2.2.11 is pre-incubating, dilute RETS1 substrate in a 15 mL polypropylene centrifuge tube.
After the plate in step is done pre-incubating, and using the manual multichannel, add 25 μL of substrate to all wells on the plate. Quickly mix the plate as in step 2.2.10, mixing 65 μL of the 100 μL in the wells.
Read the plate in kinetic mode on the Molecular Devices SpectraMax
IC50s are determined using a four parameter curve fit equation, and converted to Ki's using the following Km's:
where Ki=IC50/(1+[S]/Km))

T1 sequence (P27958 1027-1657): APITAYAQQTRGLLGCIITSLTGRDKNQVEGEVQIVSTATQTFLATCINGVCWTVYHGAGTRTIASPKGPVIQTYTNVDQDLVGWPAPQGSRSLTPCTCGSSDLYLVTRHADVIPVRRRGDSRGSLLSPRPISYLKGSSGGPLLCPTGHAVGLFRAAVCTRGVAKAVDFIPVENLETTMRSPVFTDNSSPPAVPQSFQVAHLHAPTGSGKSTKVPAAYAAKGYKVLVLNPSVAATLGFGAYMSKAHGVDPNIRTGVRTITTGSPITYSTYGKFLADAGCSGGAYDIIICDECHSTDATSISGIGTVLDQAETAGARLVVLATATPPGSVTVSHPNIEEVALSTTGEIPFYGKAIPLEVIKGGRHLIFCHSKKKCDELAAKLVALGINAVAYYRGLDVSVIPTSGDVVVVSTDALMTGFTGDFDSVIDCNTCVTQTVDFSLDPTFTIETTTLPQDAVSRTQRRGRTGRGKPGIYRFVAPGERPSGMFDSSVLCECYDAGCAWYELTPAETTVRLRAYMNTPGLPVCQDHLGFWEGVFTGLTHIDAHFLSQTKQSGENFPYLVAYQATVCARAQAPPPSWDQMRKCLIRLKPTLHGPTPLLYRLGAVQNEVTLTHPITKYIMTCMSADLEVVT

Structure (SMILES)	IC50 [nM]
CC(C)(C)OC(=O)N[C@H]1CCCCC/C=C\[C@@H]2C[C@@]2(C(=O)Nc2ccc(F)cc2)NC(=O)[C@@H]2CCCN2C1=O [Compound 2304]	< 1000

Same assay, conditions: Table 25; read-out: NS3-NS4 IC50

Structure (SMILES)	IC50 [nM]
Cc1ccc([S@+]([O-])NC(=O)[C@@]23C[C@H]2/C=C\CCCCC[C@H](NC(=O)OC(C)(C)C)C(=O)N2C[C@H](OC(=O)N4Cc5ccccc5C4)C[C@H]2C(=O)N3)cc1 [Compound 2602]	< 10000

Same assay, conditions: read-out: NS3-NS4 IC50

Structure (SMILES)	IC50 [nM]
CCCNS(=O)(=O)NC(=O)[C@@]12C[C@H]1/C=C\CCCCC[C@H](NC(=O)OC(C)(C)C)C(=O)N1CCC[C@H]1C(=O)N2 [Compound 2217]	< 1000
CC(C)(C)OC(=O)N[C@H]1CCCCC/C=C\[C@@H]2C[C@@]2(C(=O)NS(=O)(=O)NCC2CC2)NC(=O)[C@@H]2CCCN2C1=O [Compound 2245]	< 100
CC(C)(C)OC(=O)N[C@H]1CCCCC/C=C\[C@@H]2C[C@@]2(C(=O)NS(=O)(=O)c2cnccc2Cl)NC(=O)[C@@H]2CCCN2C1=O [Compound 2128]	< 10000
CC(C)(C)OC(=O)N[C@H]1CCCCC/C=C\[C@@H]2C[C@@]2(C(=O)NS(=O)(=O)c2ccc([N+](=O)[O-])cc2)NC(=O)[C@@H]2CCCN2C1=O [Compound 2102]	< 10000
Cc1ccc(CC(=O)N[C@H]2CCCCC/C=C\[C@@H]3C[C@@]3(C(=O)NS(=O)(=O)C3CC3)NC(=O)C3CCCN3C2=O)cc1 (stereo partly drawn) [Compound 2140]	> 10000
CC(C)(C)OC(=O)N[C@H]1CCCCC/C=C\[C@@H]2C[C@@]2(C(=O)NS(=O)(=O)Nc2ccc(Cl)c(Cl)c2)NC(=O)[C@@H]2CCCN2C1=O [Compound 2234]	< 1000

The molecules below were run on HCV sub-genomic replicon GS4.3 (HuH-7 hepatoma cells) (assay: Quantitation by ELISA of neomycin phosphotransferase II (NPTII) in the HCV sub-genomic replicon, GS4.3). Settings: Hepatitis C virus, Huh-7, 72 h, read-out: Replicon EC50.
Format: cell-based
From the text: Quantitation by ELISA of the Selectable Marker Protein, Neomycin Phosphotransferase II (NPTII) in the HCV Sub-Genomic Replicon, GS4.3
The HCV sub-genomic replicon (1377/NS3-3′, accession No. AJ242652), stably maintained in HuH-7 hepatoma cells, was created by Lohmann et al. Science 285: 110-113 (1999). The replicon-containing cell culture, designated GS4.3, was obtained from Dr. Christoph Seeger of the Institute for Cancer Research, Fox Chase Cancer Center, Philadelphia, Pa.
GS4.3 cells were maintained at 37° C., 5% CO2, in DMEM (Gibco 11965-092) supplemented with L-glutamine 200 mM (100×) (Gibco25030-081), non-essential amino acids (NEAA)(Biowhittaker 13-114E), heat-inactivated (HI) Fetal Bovine Serum(FBS)(Hyclone SH3007.03) and […] geneticin (G418)(Gibco 10131-035). Cells were sub-divided 1:3 or 4 every 2-3 days.
24 h prior to the assay, GS4.3 cells were collected, counted, and plated in 96-well plates (Costar 3585) at 7500 cells/well in 100 μl standard maintenance medium (above) and incubated in the conditions above. To initiate the assay, culture medium was removed, cells were washed once with PBS (Gibco 10010-023) and 90 μl Assay Medium (DMEM, L-glutamine, NEAA, 10% HI FBS, no G418) was added. Inhibitors were made as a 10× stock in Assay Medium, (3-fold dilutions from 10 μM to […] final concentration, final DMSO concentration 1%), 10 μl were added to duplicate wells, plates were rocked to mix, and incubated as above for 72 h.
An NPTII Elisa kit was obtained from AGDIA, Inc. (Compound direct ELISA test system for Neomycin Phosphotransferase II, PSP 73000/4800). Manufacturer's instructions were followed, with some modifications. 10×PEB-1 lysis buffer was made up to include 500 μM PMSF (Sigma P7626, 50 mM stock in isopropanol). After 72 h incubation, cells were washed once with PBS and 150 μlPEB-1 with PMSF was added per well. Plates were agitated vigorously for 15 minutes, room temperature, then frozen at −70° C. Plates were thawed, lysates were mixed thoroughly, and 100 μl were applied to an NPTII Elisa plate. A standard curve was made. Lysate from DMSO-treated control cells was pooled, serially diluted with PEB-1 with PMSF, and applied to duplicate wells of the ELISA plate, in a range of initial lysate amount of 150 ul-2.5 ul. In addition, 100 μl buffer alone was applied in duplicate as a blank. Plates were sealed and gently agitated at room temperature for 2 h. Following capture incubation, the plates were washed 5×300 μlwith PBS-T (0.5% Tween-20, PBS-T was supplied in the ELISA kit). For detection, a 1× dilution of enzyme conjugate diluent MRS-2 (5×) was made in PBS-T, into which 1:100 dilutions of enzyme conjugates A and B were added, as per instructions. Plates were resealed, and incubated with agitation, covered, room temperature, for 2 h. The washing was then repeated and 100 μlof room temperature TMB substrate was added. After approximately 30 minutes incubation (room temperature, agitation, covered), the reaction was stopped with 50 μl 3M sulfuric acid. Plates were read at 450 nm on a Molecular Devices Versamax plate reader.
Inhibitor effect was expressed as a percentage of DMSO-treated control signal, and inhibition curves were calculated using a 4-parameter equation: y=A+4B-A)/(1+((C/x)^13))), where C is half-maximal activity or EC50.

Structure (SMILES)	EC50 [nM]
CS(=O)(=O)NC(=O)[C@@]12C[C@H]1/C=C\CCCCC[C@H](NC(=O)OC1CCCC1)C(=O)N1C[C@H](OC(=O)N3CCc4ccccc4C3)C[C@H]1C(=O)N2 [Compound 119]	< 1000
CN(C)c1ccc(S(=O)(=O)NC(=O)[C@@]23C[C@H]2/C=C\CCCCC[C@H](NC(=O)OC2CCCC2)C(=O)N2C[C@H](OC(=O)N4CCc5ccccc5C4)C[C@H]2C(=O)N3)cc1 [Compound 183]	< 100
Cc1noc(C)c1S(=O)(=O)NC(=O)[C@@]12C[C@H]1/C=C\CCCCC[C@H](NC(=O)OC1CCCC1)C(=O)N1C[C@H](OC(=O)N3CCc4ccccc4C3)C[C@H]1C(=O)N2 [Compound 187]	< 1000
N[C@H]1CCCCC/C=C\[C@@H]2C[C@@]2(C(=O)NS(=O)(=O)Nc2ccc(Cl)cc2)NC(=O)[C@@H]2C[C@@H](OC(=O)N3Cc4ccccc4C3)CN2C1=O [Compound 203]	> 10000
CC(C)S(=O)(=O)NC(=O)[C@@]12C[C@H]1/C=C\CCCCC[C@H](NC(=O)OC1CCCC1)C(=O)N1C[C@H](OC(=O)N3CCc4ccccc4C3)C[C@H]1C(=O)N2 [Compound 118]	< 100

Same assay, conditions: Hepatitis C virus, Huh-7; GS4.3 cells, 72 h; read-out: Replicon EC50

Structure (SMILES)	EC50 [nM]
O=C(N[C@H]1CCCCC/C=C\[C@@H]2C[C@@]2(C(=O)NS(=O)(=O)C2CC2)NC(=O)C2C[C@@H](OC(=O)N3Cc4ccncc4C3)CN2C1=O)OC1CCCC1 (stereo partly drawn) [Compound 155]	< 1000
CC(C)(C)OC(=O)N[C@H]1CCC(O)CC/C=C\[C@@H]2C[C@@]2(C(=O)NS(=O)(=O)C2CC2)NC(=O)[C@@H]2C[C@@H](OC(=O)N3Cc4cccc(F)c4C3)CN2C1=O (stereo partly drawn) [Compound 1018]	< 1000
CC(C)(C)OC(=O)N[C@H]1COCCC/C=C\[C@@H]2C[C@@]2(C(=O)NS(=O)(=O)C2CC2)NC(=O)[C@@H]2C[C@@H](OC(=O)N3Cc4cccc(Cl)c4C3)CN2C1=O [Compound 1025]	< 100
CNc1c(NC(=O)C23C[C@H]2/C=C\CCCCC[C@H](NC(=O)OC(C)(C)C)C(=O)N2C[C@H](OC(=O)N4Cc5cccc(F)c5C4)C[C@H]2C(=O)N3)c(=O)c1=O (stereo partly drawn) [Compound 646]	> 10000
CC(C)(C)OC(=O)N[C@H]1CCCCC/C=C\[C@@H]2C[C@@]2(C(=O)O)NC(=O)C2C[C@@H](OC(=O)N3Cc4c(Cl)ccc(Cl)c4C3)CN2C1=O (stereo partly drawn) [Compound 144]	< 10000
O=C(N[C@H]1CCCCC/C=C\[C@@H]2C[C@@]2(C(=O)O)NC(=O)C2C[C@@H](OC(=O)N3Cc4ccncc4C3)CN2C1=O)OC1CCCC1 (stereo partly drawn) [Compound 146]	> 10000
O=C(N[C@H]1CCCCC/C=C\[C@@H]2C[C@@]2(C(=O)NC(=O)C2CC2)NC(=O)C2C[C@@H](OC(=O)N3CCc4ccccc4C3)CN2C1=O)OC1CCCC1 (stereo partly drawn) [Compound 706]	< 100
O=C1N[C@]2(C(=O)NS(=O)(=O)C3CC3)C[C@H]2/C=C\CCCCC[C@H](Nc2c(N3CCC3)c(=O)c2=O)C(=O)N2CC(OC(=O)N3CCc4ccccc4C3)C[C@@H]12 (stereo partly drawn) [Compound 242]	< 10000
CN(Cc1ccccc1)C(=O)OC1C[C@H]2C(=O)N[C@]3(C(=O)NS(=O)(=O)C4CC4)C[C@H]3/C=C\CCCCC[C@H](NC(=O)OC(C)(C)C)C(=O)N2C1 (stereo partly drawn) [Compound 245]	< 1000
C[C@H](NC(=O)O[C@@H]1CC2C(=O)N[C@]3(C(=O)NS(=O)(=O)C4CC4)C[C@H]3/C=C\CCCCC[C@H](NC(=O)OC(C)(C)C)C(=O)N2C1)c1ccc(F)cn1 (stereo partly drawn) [Compound 149]	> 10000
CC(C)(C)OC(=O)N[C@H]1CCCCC/C=C\[C@@H]2C[C@@]2(C(=O)NS(=O)(=O)C2CC2)NC(=O)C2C[C@@H](OC(=O)N3Cc4c(Cl)ccc(Cl)c4C3)CN2C1=O (stereo partly drawn) [Compound 145]	< 100
Cc1ccccc1S(=O)(=O)NC(=O)[C@@]12C[C@H]1/C=C\CCCCC[C@H](NC(=O)OC(C)(C)C)C(=O)N1C[C@H](OC(=O)N3Cc4cccc(F)c4C3)CC1C(=O)N2 (stereo partly drawn) [Compound 157]	< 100
O=C1N[C@]2(C(=O)NS(=O)(=O)C3CC3)C[C@H]2/C=C\CCCCC[C@H](NC(=S)N2CCCC2)C(=O)N2CC(OC(=O)N3Cc4cccc(F)c4C3)C[C@@H]12 (stereo partly drawn) [Compound 244]	< 100
O=C(N[C@@H]1CCCCC/C=C\[C@@H]2C[C@]2(C(=O)NS(=O)(=O)N2CCC(F)(F)C2)NC(=O)C2C[C@H](OC(=O)N3Cc4ccccc4C3)CN2C1=O)OC1CCCC1 (stereo partly drawn) [Compound 227]	< 100
